# Assay results published in the supplement of paper PMC10307832.
# Experiments:
# Assay in all cases: relative viability (nuclei count vs DMSO), 5 days (fraction); higher = more cells survive
# [1] = compound: C1=CC2=NC=CN=C2C=C1/C=C/3\C(=O)NC(=O)S3 + CS(=O)(=O)CCNCc1ccc(-c2ccc3ncnc(Nc4ccc(OCc5cccc(F)c5)c(Cl)c4)c3c2)o1 [Lapatinib] (partner 2 µM)
# Summary of the method: (§1)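 Nuclei were stained with Hoechst during a one-step fixation (final 0.05% Triton X-100, 1% formaldehyde, 1 ug/ml Hoechst) carried out 5 days after dosing, then counted on 4× images. The cells, lung cancer lines in 1536-well plates, had been dosed by pin tool the day after seeding with one drug alone or a fixed anchor-drug dose plus five library-drug doses (not always all listed) in √10 steps. Relative viability is the nuclei count in treated wells divided by that in vehicle wells, and each value is the median of duplicate plates.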
# BGJ398 + Alpelisib = compound: CCN1CCN(c2ccc(Nc3cc(N(C)C(=O)Nc4c(Cl)c(OC)cc(OC)c4Cl)ncn3)cc2)CC1 [BGJ398] + Cc1nc(NC(=O)N2CCC[C@H]2C(N)=O)sc1-c1ccnc(C(C)(C)C(F)(F)F)c1 [Alpelisib] (partner 2 µM)
# Summary of the method: as §1
# BGJ398 + Olaparib = compound: CCN1CCN(c2ccc(Nc3cc(N(C)C(=O)Nc4c(Cl)c(OC)cc(OC)c4Cl)ncn3)cc2)CC1 [BGJ398] + O=C(c1cc(Cc2n[nH]c(=O)c3ccccc23)ccc1F)N1CCN(C(=O)C2CC2)CC1 [Olaparib] (partner 8 µM)
# Summary of the method: as §1
# BGJ398 + Tozasertib = compound: CCN1CCN(c2ccc(Nc3cc(N(C)C(=O)Nc4c(Cl)c(OC)cc(OC)c4Cl)ncn3)cc2)CC1 [BGJ398] + Cc1cc(Nc2cc(N3CCN(C)CC3)nc(Sc3ccc(NC(=O)C4CC4)cc3)n2)n[nH]1 [Tozasertib] (partner 0.1 µM)
# Summary of the method: as §1
Cell Line,relative viability ([1]; first compound 0.02 µM),relative viability ([1]; first compound 0.06325 µM),relative viability ([1]; first compound 0.2 µM),relative viability ([1]; first compound 0.6325 µM),relative viability ([1]; first compound 2 µM),relative viability (BGJ398 + Alpelisib; first compound 0.01 µM),relative viability (BGJ398 + Alpelisib; first compound 0.03162 µM),relative viability (BGJ398 + Alpelisib; first compound 0.1 µM),relative viability (BGJ398 + Alpelisib; first compound 0.3162 µM),relative viability (BGJ398 + Alpelisib; first compound 1 µM),relative viability (BGJ398 + Olaparib; first compound 0.01 µM),relative viability (BGJ398 + Olaparib; first compound 0.03162 µM),relative viability (BGJ398 + Olaparib; first compound 0.1 µM),relative viability (BGJ398 + Olaparib; first compound 0.3162 µM),relative viability (BGJ398 + Olaparib; first compound 1 µM),relative viability (BGJ398 + Tozasertib; first compound 0.01 µM),relative viability (BGJ398 + Tozasertib; first compound 0.03162 µM),relative viability (BGJ398 + Tozasertib; first compound 0.1 µM),relative viability (BGJ398 + Tozasertib; first compound 0.3162 µM),relative viability (BGJ398 + Tozasertib; first compound 1 µM)
Calu-6,1.05,1.14,0.97,1.06,1,0.861,1.01,0.984,0.999,0.944,0.599,0.605,0.578,0.58,0.59,–,–,–,–,–
ChaGo-K-1,–,–,–,–,–,–,–,–,–,–,0.42,0.423,0.437,0.387,0.434,0.229,0.24,0.19,0.215,0.226
EBC-1,0.221,0.203,0.191,0.189,0.231,0.806,0.85,0.917,0.812,0.884,0.717,0.717,0.679,0.737,0.668,–,–,–,–,–
EKVX,0.215,0.18,0.251,0.207,0.146,0.798,0.665,0.95,0.842,0.977,0.872,0.884,0.812,0.74,0.696,0.387,0.421,0.431,0.436,0.389
EMC-BAC-2,0.829,0.96,0.962,0.762,0.555,0.727,0.77,0.786,0.787,0.738,0.456,0.568,0.519,0.547,0.456,0.28,0.314,0.3,0.276,0.312
EPLC-272H,0.895,1.18,1.11,0.916,0.576,0.895,0.812,0.846,0.752,0.952,0.626,0.829,0.594,0.797,0.656,0.17,0.276,0.203,0.288,0.227
H3255,0.318,0.241,0.282,0.238,0.217,0.676,–,0.747,0.37,0.792,0.527,0.537,0.604,0.551,0.55,0.628,–,0.472,0.743,0.608
HARA,0.668,0.984,0.997,0.633,0.31,0.784,0.635,0.752,0.817,0.787,0.983,0.651,0.875,0.902,0.722,0.0926,0.116,0.0915,0.0847,0.0857
HCC-15,0.84,0.87,0.881,0.792,0.84,0.88,0.909,0.976,0.91,1.02,0.699,0.749,0.712,0.732,0.725,0.351,0.43,0.436,0.349,0.389
